Results as given in patent publication US8703424B2, “Predicting human developmental toxicity of pharmaceuticals using human stem-like cells and metabolomics” (Stemina Biomarker Discovery, Inc., priority 2010, dated 2014).
Read-outs that look alike come from different tables or passages of the source.

Legend:
[1] = system: WA09 human embryonic stem (hES) cells; test: PLS-DA prediction of teratogenicity from secretome of treated hES cells (Example 9); conditions: DevTox pharmaceutical
Description: These included 11 known teratogens and 11 known non-teratogens. The current model is based on the mean fold change (treatment versus its associated intra-experimental control) of 15 metabolites common among the secretome of hES cells treated with pharmaceutical agents and unknown chemical compounds.

hESCs = test: Arginine / ADMA fold change ratio (integrated EICs) in dosed hESCs vs controls; conditions: for Arg fold change/ADMA fold change: EIC areas, controls vs. dosed
Description: All tested chemicals were purchased from Sigma-Aldrich (St. Louis, Mo.). Cells were dosed with drugs at a concentration equivalent to their published serum circulating therapeutic dosages. Dosing was performed on hESCs in 6-well plates in triplicate, i.e. three wells per plate. The plates were dosed in triplicate, so there were a total of nine dosed wells. In parallel, there were nine “control” wells, in which hESCs were cultured with mTeSR1 containing no drug, and three wells containing Matrigel with mTeSR1 medium without hESCs that served as medium controls. Lastly, three wells of dosed medium controls were prepared, containing Matrigel, mTeSR1 and drug, but no hESCs (FIG. 1). These medium controls provided baseline mass spectral data. On the first day of dosage, the determined concentration of drug was dissolved in mTeSR1, and then 2.5 mL of this solution was added to each dosed well of hESCs. Each day, for four days, the medium was removed and new dosed medium was added. On the fourth day, the medium was removed and added to acetonitrile to make a 40% acetonitrile solution, as outlined in the Sample Preparation section below.
Mass spectrometry was performed using an Agilent QTOF LC/MS system consisting of a G6520AA QTOF high resolution mass spectrometer capable of exact mass MS and MS/MS. In order to facilitate separation of small molecules with a wide range of polarity and to allow increased retention of hydrophilic species, Hydrophilic Interaction Liquid Chromatography (Alpert 1990) was employed. Each sample was run for 30 minutes with the gradient shown in Table 3 at a flow rate of 0.5 mL/min, using 0.1% formic acid in water (Solvent A) and 0.1% formic acid in acetonitrile (Solvent B). Electrospray ionization was employed using a dual ESI source, with an Agilent isocratic pump continuously delivering an internal mass reference solution into the source at approx. 0.01 mL/min. The mass range of the instrument was set to 100-1700 Da. A Phenomenex Luna HILIC column with dimensions 3×100 mm 3 μm particle size was used and maintained at 30° C. 5 μl of each sample was injected. Data acquisition was performed with Agilent MassHunter using high-resolution exact mass conditions.
Valproate is known to cause neural tube defects (DiLiberti et al. 1984) while nitric oxide synthase activity is essential for neural tube closure (Nachmany et al. 2006).

WA09 hESCs [2] = test: LC-MS metabolomics: abundance changes of metabolites in hESCs dosed at circulating dose; assay type: cell-based, human
Description: (§1) These medium controls provided baseline mass spectral data.
(§2) The 2.5 mL of spent media per well from Example 1 was added to 1.67 mL acetonitrile to make a 40% acetonitrile solution. The acetonitrile acts to “quench” the spent media sample, slowing or halting many metabolic processes and aiding in precipitation of cellular proteins. Samples were either stored at −80° C. for later analysis, or for immediate analysis, 250 μL of the quenched solution was mixed with 250 μL of water, to a final concentration of 20% acetonitrile, then added to a 3 kDa molecular weight cut-off filter spin column (Microcon YM-3 Centrifugal Filter, Millipore, Billerica, Mass.). Each sample was then centrifuged in an IEC CL31R Multispeed Centrifuge (Thermo Scientific, Waltham, Mass.) at 13,000×g at 4° C. for 200 minutes. Following centrifugation, the flow-through was saved then dried for several hours in a Savant High Capacity Speedvac Plus Concentrator. The concentrated sample was then dissolved in 50 μL of 0.1% formic acid prior to LC-MS analysis.
(§3) 5 μl of each sample was injected.
(§4) Following LC-MS, chromatograms were inspected for reproducibility. LC-MS runs with total ion counts that vary by more than 25% were repeated to ensure that samples could be accurately compared. These runs were then used to create mass features that correspond to molecules detected across the different LC-MS runs. Mass features were extracted from the LC-MS data using MassHunter Qualitative Analysis software (Agilent Technologies). The following criteria were used as general guidelines, however some flexibility and optimization was needed. m/z values within the range of 75-1500, with a charge of +1 or −1, and a centroid height greater than 1000 were used to generate “mass features.” The mass peaks that pass these criteria were used to fit isotope and adduct (Na^+, K^+, and NH4^+) patterns corresponding to individual molecules, and to establish the abundance of each mass feature. The abundance is calculated by MassHunter software as the sum of the isotopic and adduct peaks that correspond to a single molecular feature. After data deconvolution, mass features showing at least two ions (e.g. (M^+H)^+ and (M^+H)^++1 or (M^+H)^+ and (M^+Na)^+) and an abundance value greater than 50000 for positive-ion mode data and 10000 in negative-ion mode data were included in the data set used for binning of the mass features.
The media represents a major factor in the experimental system, in that it contributes many peaks to mass spectra. This can be accounted for in a data dependent manner to select for mass feature bins, which are present at significant levels above the media. Mass feature bins present solely in the presence of cells (not detected in media) or with average abundance levels different than uncultured media were considered to be secreted, excreted, consumed, or identified metabolites.
The exact mass of the metabolite must be within 10 ppm of the known mass of the compound. 2) The retention time of the metabolite detected in the cell media must be within + or −30 seconds of a reference standard on which MS data had been acquired under the same conditions. The reference standards were dissolved in mTeSR media and prepared in exactly the same manner (described above) as the samples from the cells, including the addition of acetonitrile, Centricon centrifugal filtration, drying then dissolution in formic acid prior to LC-MS analysis. 3) The MS-MS fragmentation spectra of the metabolite detected in the cell media must be a reasonable match with that of the reference standard, including abundances and m/z values of the fragment ions. If published MS-MS spectra are available, the MS-MS spectra must also be a reasonable match.

WA09 hESCs [3] = test: Random forest prediction of teratogenicity from metabolomics of spent media of dosed hESCs; assay type: cell-based, human; conditions: for Predicted teratogenicity (random forest statistical model): blind study, model trained on TS1, 142 mass features, circulating dose
Description: WA09 hESCs, obtained from WiCell Research Institute (NIH National Stem Cell Bank, Madison, Wis.) were cultured in 6-well plates on Matrigel (BD Biosciences, San Jose, Calif.), in mTeSR1 medium (Stem Cell Technologies, Vancouver, BC) incubated at 37° C. under 5% CO2 in a Thermo Electron Form a Series II Water Jacket CO2 Incubator. hESCs were passaged every three or four days at a 1:3 or 1:6 seeding density for routine culture conditions. For dosing experiments, hESCs were passaged at a low density of 1:10 or 1:12 so that they would not require passaging during the […] dosing protocol. To passage hES cells, the StemPro® EZPassage™ disposable stem cell passaging tool (Invitrogen, Carlsbad, Calif.) was used to detach the cells from the wells. Detached cells were removed with a pipette and distributed to new Matrigel plates.
as §1, §2, §3, §4
Following feature selection by MassHunter, the data was further preprocessed by MassProfiler (Agilent) software which aligns mass features across multiple LC-MS data files. Mass features were generated for data from each drug treatment experiment (dosed and control) using the default alignment settings in MassProfiler with the requirement that a feature be present in at least 80% of the samples in one treatment. The mass feature datasets for each drug treatment experiment were further processed in a global manner using custom analysis scripts executed in the R statistical software environment. […]

[4] = blinded drugs; cited from earlier work
[5] = high dose (H = 10x circulating dose)
[6] = low dose (L = 0.1x circulating dose)

SMILES | Arg/ADMA Prediction (hESCs) | % Non (PLS-DA class probability non-teratogen) [1, 5] | % Ter (PLS-DA class probability teratogen) [1, 5] | Confidence (difference between class probabilities) [1, 5] | Prediction [1, 5] | % Non (PLS-DA class probability non-teratogen) [1, 6] | % Ter (PLS-DA class probability teratogen) [1, 6] | Confidence (difference between class probabilities) [1, 6] | Prediction [1, 6] | Arg fold change/ADMA fold change (hESCs) | Changes in metabolites on dosing (WA09 hESCs [2]) | Abundance of succinic acid (WA09 hESCs [2]; drug-treated vs control) | Concentration of GABA in the secretome of hESCs (WA09 hESCs [2]; dosed hESCs) | Predicted teratogenicity (random forest statistical model) (WA09 hESCs [3]) | Arg/ADMA Prediction (hESCs; from fold change ratio) | Actual teratogenicity [4] | Classification by the refined random forest model (FIG. 3) (WA09 hESCs [3]; 18-feature model, 26 drug treatment experiments) | Abundance of asymmetric dimethylarginine (ADMA) (WA09 hESCs [2]; drug-treated vs control)
O=c1[nH]cc(F)c(=O)[nH]1 [5-Fluorouracil] | Ter | 0.32 | 0.68 | 0.36 | Ter | 0.28 | 0.72 | 0.44 | Ter | 43.93 | most profound changes in many metabolites | significant down regulation | – | – | – | – | – | –
CS(=O)(=O)OCCCCOS(C)(=O)=O [Busulfan] | Ter | 0.28 | 0.72 | 0.44 | Ter | 0.29 | 0.71 | 0.42 | Ter | 1.12 | – | – | Increased concentrations | – | – | – | – | –
O=P1(N(CCCl)CCCl)NCCCO1 (stereo not shown) [Cyclophosphamide] | – | 0.45 | 0.55 | 0.1 | Ter | 0.41 | 0.59 | 0.18 | Ter | 1.56 | – | significant down regulation | – | Ter | Ter | – | – | –
Nc1ccn([C@@H]2O[C@H](CO)[C@@H](O)[C@@H]2O)c(=O)n1 [Cytosine Arabinoside] | Ter | – | – | – | – | – | – | – | – | 67.01 | most profound changes in many metabolites | significant down regulation | – | – | – | – | – | –
CC1=C(/C=C/C(C)=C/C=C/C(C)=C/CO)C(C)(C)CCC1 [Retinol] | – | 0.65 | 0.35 | 0.3 | Non | 0.75 | 0.25 | 0.5 | Non | 1.03 | – | – | – | Non | – | Non | – | –

More lines, main results first:

Arg/ADMA Prediction (hESCs) | SMILES | % Non (PLS-DA class probability non-teratogen) [1, 5] | % Ter (PLS-DA class probability teratogen) [1, 5] | Confidence (difference between class probabilities) [1, 5] | Prediction [1, 5] | % Non (PLS-DA class probability non-teratogen) [1, 6] | % Ter (PLS-DA class probability teratogen) [1, 6] | Confidence (difference between class probabilities) [1, 6] | Prediction [1, 6] | Arg fold change/ADMA fold change (hESCs) | Changes in metabolites on dosing (WA09 hESCs [2]) | Abundance of succinic acid (WA09 hESCs [2]; drug-treated vs control) | Concentration of GABA in the secretome of hESCs (WA09 hESCs [2]; dosed hESCs) | Predicted teratogenicity (random forest statistical model) (WA09 hESCs [3]) | Arg/ADMA Prediction (hESCs; from fold change ratio) | Actual teratogenicity [4] | Classification by the refined random forest model (FIG. 3) (WA09 hESCs [3]; 18-feature model, 26 drug treatment experiments) | Abundance of asymmetric dimethylarginine (ADMA) (WA09 hESCs [2]; drug-treated vs control)
Ter | NC(=O)N1c2ccccc2C=Cc2ccccc21 [Carbamazepine] | 0.37 | 0.63 | 0.26 | Ter | 0.5 | 0.5 | 0 | Non | 1.12 | – | significant down regulation | – | Ter | – | – | – | –
Ter | NC(=O)NO [Hydroxyurea] | 0.32 | 0.68 | 0.36 | Ter | 0.64 | 0.36 | 0.28 | Non | 2.52 | – | significant down regulation | – | – | – | – | – | –
Ter | CN(Cc1cnc2nc(N)nc(N)c2n1)c1ccc(C(=O)N[C@@H](CCC(=O)O)C(=O)O)cc1 [Methotrexate] | 0.42 | 0.58 | 0.16 | Ter | 0.48 | 0.52 | 0.04 | Ter | 2.54 | – | significant down regulation | – | – | – | – | – | –
Ter | CO[C@H]1/C=C/O[C@@]2(C)Oc3c(C)c(O)c4c(O)c(c(/C=N/N5CCN(C)CC5)c(O)c4c3C2=O)NC(=O)/C(C)=C\C=C\[C@H](C)[C@H](O)[C@@H](C)[C@@H](O)[C@@H](C)[C@H](OC(C)=O)[C@@H]1C [Rifampicin] | 0.27 | 0.73 | 0.46 | Ter | 0.46 | 0.54 | 0.08 | Ter | 0.81 | – | – | – | Ter | – | – | misclassified as non-teratogens | –
Ter | CCCC(CCC)C(=O)O [Valproic Acid] | – | – | – | – | – | – | – | – | 2.11 | – | significant down regulation | – | – | – | – | – | significant fold decrease
